# Results: US8884061B2, “Compositions and methods of use of electron transport system inhibitors” (priority 2006, dated 2014)
# Where two headings read alike, the source gives them in different places.
# Experiments:
# [1] = test system: S. aureus ATCC 43300 (MRSA); assay: MIC, other bacteria (Table 3); type: cell-based; details: Staphylococcus aureus, inoculum size 10^6 CFU/ml, read-out: MIC
# M. tuberculosis Kurono = assay: MIC, agar (7H11) dilution method; type: cell-based; details: Mycobacterium tuberculosis; M. tuberculosis Kurono; agar (7H11) dilution; read-out: Minimum inhibitory concentrations (MIC)
# M. avium Flamingo = assay: MIC, agar (7H11) dilution method; type: cell-based; details: Mycobacterium avium, read-out: Minimum inhibitory concentrations (MIC)
# S. aureus ATCC 29213 = assay: MIC, other bacteria (Table 3); type: cell-based; details: Staphylococcus aureus, ATCC29213, inoculum size 10^6 CFU/ml, read-out: MIC
# MRSA 2441-05223 = assay: MIC, other bacteria (Table 3); type: cell-based, S. aureus; details: Staphylococcus aureus, inoculum size 10^6 CFU/ml, read-out: MIC
# MRSA 2441-05112 = assay: MIC, other bacteria (Table 3); type: cell-based, S. aureus; details: Staphylococcus aureus, inoculum size 10^6 CFU/ml, read-out: MIC
# VRSA 2441-T0044 = assay: MIC, other bacteria (Table 3); type: cell-based, S. aureus; details: Staphylococcus aureus, VRSA
# M. kansasii NIHJ1619 = assay: MIC, agar (7H11) dilution method; type: cell-based; details: Mycobacterium kansasii, read-out: Minimum inhibitory concentrations (MIC)
# M. fortuitum NIHJ1615 = assay: MIC, agar (7H11) dilution method; type: cell-based; details: Mycolicibacterium fortuitum, read-out: Minimum inhibitory concentrations (MIC)
# E. coli ATCC 25922 = assay: MIC, other bacteria (Table 3); type: cell-based; details: Escherichia coli, ATCC25922, inoculum size 10^6 CFU/ml, read-out: MIC
# M. tuberculosis H37Rv = assay: MIC, agar (7H11) dilution method; type: cell-based; details: Mycobacterium tuberculosis, H37RV
# S. marsascens ATCC 14756 = assay: MIC, other bacteria (Table 3); type: cell-based; details: inoculum size 10^6 CFU/ml, read-out: MIC
# [2] = test system: S. epidermidis ATCC 12228; assay: MIC, other bacteria (Table 3); type: cell-based; details: Staphylococcus epidermidis, ATCC12228, inoculum size 10^6 CFU/ml, read-out: MIC
# VRSA 2441-T0041 = assay: MIC, other bacteria (Table 3); type: cell-based, S. aureus; details: Staphylococcus aureus; VRSA 2441-T0041, low level VCM-resistant; inoculum size 10^6 CFU/ml; read-out: MIC
# MRSE 2442-05030 = assay: MIC, other bacteria (Table 3); type: cell-based, S. epidermidis; details: Staphylococcus epidermidis, inoculum size 10^6 CFU/ml, read-out: MIC
# M. aurum = assay: MIC, agar (7H11) dilution method; type: cell-based; details: Mycolicibacterium aurum, read-out: Minimum inhibitory concentrations (MIC)
# [3] = test system: E. faecalis ATCC 51299 (VRE); assay: MIC, other bacteria (Table 3); type: cell-based; details: Enterococcus faecalis, low level VCM-resistant, Van B, inoculum size 10^6 CFU/ml, read-out: MIC
# MRSA 2441-05104 = assay: MIC, other bacteria (Table 3); type: cell-based, S. aureus; details: Staphylococcus aureus, inoculum size 10^6 CFU/ml, read-out: MIC
# MRSA 2441-05129 = assay: MIC, other bacteria (Table 3); type: cell-based, S. aureus; details: Staphylococcus aureus, inoculum size 10^6 CFU/ml, read-out: MIC
# MRSA 2441-05254 = assay: MIC, other bacteria (Table 3); type: cell-based, S. aureus; details: Staphylococcus aureus, inoculum size 10^6 CFU/ml, read-out: MIC
# [4] = test system: M. intracellularae ATCC 15984; assay: MIC, agar (7H11) dilution method; type: cell-based; details: read-out: Minimum inhibitory concentrations (MIC)
# MRSE 2442-05047 = assay: MIC, other bacteria (Table 3); type: cell-based, S. epidermidis; details: Staphylococcus epidermidis, inoculum size 10^6 CFU/ml, read-out: MIC
# E. faecalis ATCC 29212 = assay: MIC, other bacteria (Table 3); type: cell-based; details: Enterococcus faecalis, ATCC29212, inoculum size 10^6 CFU/ml, read-out: MIC
# [5] = test system: E. faecalis NCTC 12201 (VRE); assay: MIC, other bacteria (Table 3); type: cell-based; details: Enterococcus faecalis, high level VCM-resistant, Van A, inoculum size 10^6 CFU/ml, read-out: MIC
# E. faecium ATCC 49224 = assay: MIC, other bacteria (Table 3); type: cell-based; details: Enterococcus faecium, ATCC49224; E. faecium ATCC 49224, GM-resistant; inoculum size 10^6 CFU/ml; read-out: MIC
# P. aeruginosa ATCC 27853 = assay: MIC, other bacteria (Table 3); type: cell-based; details: Pseudomonas aeruginosa, ATCC27853, inoculum size 10^6 CFU/ml, read-out: MIC
# M. smegmatis Takeo = assay: MIC, agar (7H11) dilution method; type: cell-based; details: Mycolicibacterium smegmatis, read-out: Minimum inhibitory concentrations (MIC)
# MRSE 2442-05053 = assay: MIC, other bacteria (Table 3); type: cell-based, S. epidermidis; details: Staphylococcus epidermidis, inoculum size 10^6 CFU/ml, read-out: MIC
# K. pneumoniae ATCC 27736 = assay: MIC, other bacteria (Table 3); type: cell-based; details: Klebsiella pneumoniae, ATCC27736, inoculum size 10^6 CFU/ml, read-out: MIC
# M. bovis BCG Tokyo = assay: microbe, parasite or virus in culture; type: cell-based; details: Mycobacterium tuberculosis variant bovis BCG, BCG, read-out: Minimum inhibitory concentrations (MIC)
# MRSE 2442-05110 = assay: MIC, other bacteria (Table 3); type: cell-based, S. epidermidis; details: Staphylococcus epidermidis, inoculum size 10^6 CFU/ml, read-out: MIC
# [6] = test system: E. faecium NCTC 12203 (VRE); assay: MIC, other bacteria (Table 3); type: cell-based; details: Enterococcus faecium, high level VCM-resistant, Van A, inoculum size 10^6 CFU/ml, read-out: MIC
# MRSE 2442-05060 = assay: MIC, other bacteria (Table 3); type: cell-based, S. epidermidis; details: Staphylococcus epidermidis, inoculum size 10^6 CFU/ml, read-out: MIC
# MRSE 2442-05118 = assay: MIC, other bacteria (Table 3); type: cell-based, S. epidermidis; details: Staphylococcus epidermidis, inoculum size 10^6 CFU/ml, read-out: MIC
# P. mirabilis ATCC 4630 = assay: MIC, other bacteria (Table 3); type: cell-based; details: Proteus mirabilis, ATCC4630, inoculum size 10^6 CFU/ml, read-out: MIC
# MRSA 2441-05262 = assay: MIC, other bacteria (Table 3); type: cell-based, S. aureus; details: Staphylococcus aureus, inoculum size 10^6 CFU/ml, read-out: MIC
smiles,measurement,setting,value
"C=CCN(C)CCCCCCCCOc1ccc(C(O)c2ccc(Cl)cc2)c(Cl)c1 (stereo not shown) [Cpd #21, (4-(8-(allyl(methyl)amino)octyloxy)-2-chlorophenyl)(4-chlorophenyl)methanol]",MIC,[1],100 µg/mL
same,MIC,M. tuberculosis Kurono,25 µg/mL
same,MIC,M. avium Flamingo,> 25 µg/mL
same,MIC,S. aureus ATCC 29213,100 µg/mL
same,MIC,MRSA 2441-05223,> 100 µg/mL
same,MIC,MRSA 2441-05112,> 100 µg/mL
same,MIC,VRSA 2441-T0044,> 100 µg/mL
same,MIC,M. kansasii NIHJ1619,> 25 µg/mL
same,MIC,M. fortuitum NIHJ1615,> 25 µg/mL
same,MIC,E. coli ATCC 25922,> 100 µg/mL
same,MIC,"M. tuberculosis H37Rv; M. tuberculosis H37Rv, table line r9 (3rd of 5 so labelled), read-out: Minimum inhibitory concentrations (MIC)",12.5 µg/mL
same,MIC,"M. tuberculosis H37Rv; read-out: Minimum inhibitory concentrations (MIC), M. tuberculosis H37Rv, table line r7 (1st of 5 so labelled)",25 µg/mL
same,MIC,"M. tuberculosis H37Rv; read-out: Minimum inhibitory concentrations (MIC), M. tuberculosis H37Rv, table line r8 (2nd of 5 so labelled)",25 µg/mL
same,MIC,"M. tuberculosis H37Rv; read-out: Minimum inhibitory concentrations (MIC), M. tuberculosis H37Rv, table line r10 (4th of 5 so labelled)",25 µg/mL
same,MIC,"M. tuberculosis H37Rv; read-out: Minimum inhibitory concentrations (MIC), M. tuberculosis H37Rv, table line r11 (5th of 5 so labelled)",25 µg/mL
same,MIC,S. marsascens ATCC 14756,> 100 µg/mL
same,MIC,[2],50 µg/mL
same,MIC,VRSA 2441-T0041,> 100 µg/mL
same,MIC,MRSE 2442-05030,50 µg/mL
same,MIC,M. aurum,> 25 µg/mL
same,MIC,[3],> 100 µg/mL
same,MIC,MRSA 2441-05104,50 µg/mL
same,MIC,MRSA 2441-05129,> 100 µg/mL
same,MIC,MRSA 2441-05254,> 100 µg/mL
same,MIC,[4],> 25 µg/mL
same,MIC,MRSE 2442-05047,50 µg/mL
same,MIC,E. faecalis ATCC 29212,100 µg/mL
same,MIC,[5],100 µg/mL
same,MIC,E. faecium ATCC 49224,50 µg/mL
same,MIC,P. aeruginosa ATCC 27853,> 100 µg/mL
same,MIC,M. smegmatis Takeo,> 25 µg/mL
same,MIC,MRSE 2442-05053,50 µg/mL
same,MIC,K. pneumoniae ATCC 27736,> 100 µg/mL
same,MIC,M. bovis BCG Tokyo,25 µg/mL
same,MIC,MRSE 2442-05110,50 µg/mL
same,MIC,[6],50 µg/mL
same,MIC,MRSE 2442-05060,50 µg/mL
same,MIC,MRSE 2442-05118,50 µg/mL
same,MIC,P. mirabilis ATCC 4630,> 100 µg/mL
same,MIC,MRSA 2441-05262,100 µg/mL
